Results from PubChem BioAssay AID256 (DTP/NCI, 2004).
“And” between values parts separate entries of the source, which are not always exact repeats. Identical values can stand only once. Toxic doses and inconclusive results are not listed. Rule for the calls: active = survival T/C of 150% or more; inactive = T/C below 125% in these data.

Tested on: CD2F1 mice, L1210 leukemia ip, survival T/C
Assay: NCI In Vivo Anticancer Drug Screen. Data for tumor model L1210 Leukemia (intraperitoneal) in CD2F1 (CDF1) mice
Conditions: higher = longer survival
Procedure, shortened: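 Ratio T/C, where T is the treated-group value and C the vehicle-dosed control value, from mice implanted with a transplantable tumor.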

[1] = endpoint: mean survival time, dose: 100.0 mg/kg/injection, schedule: Q01DX009 (ip), vehicle: saline with Tween-80
[2] = endpoint: mean survival time, dose: 200.0 mg/kg/injection, schedule: Q01DX009 (ip), vehicle: saline with Tween-80
[3] = endpoint: mean survival time, dose: 100.0 mg/kg/injection, schedule: Q01DX001 (ip), vehicle: saline
[4] = endpoint: mean survival time, dose: 100.0 mg/kg/injection, schedule: Q04DX003 (ip), vehicle: saline with Tween-80
[5] = endpoint: mean survival time, dose: 200.0 mg/kg/injection, schedule: Q04DX003 (ip), vehicle: saline with Tween-80
[6] = endpoint: mean survival time, dose: 400.0 mg/kg/injection, schedule: Q04DX003 (ip), vehicle: saline with Tween-80
[7] = endpoint: mean survival time, dose: 400.0 mg/kg/injection, schedule: Q01DX009 (ip), vehicle: saline with Tween-80
[8] = endpoint: mean survival time, dose: 100.0 mg/kg/injection, schedule: Q01DX001 (ip), vehicle: saline with Tween-80
[9] = endpoint: mean survival time, dose: 200.0 mg/kg/injection, schedule: Q01DX001 (ip), vehicle: saline with Tween-80
[10] = endpoint: mean survival time, dose: 400.0 mg/kg/injection, schedule: Q01DX001 (ip), vehicle: saline with Tween-80
[11] = endpoint: mean survival time, dose: 200.0 mg/kg/injection, schedule: Q01DX001 (ip), vehicle: saline
[12] = endpoint: mean survival time, dose: 400.0 mg/kg/injection, schedule: Q01DX001 (ip), vehicle: saline

Measured: T/C

CC(=O)NCC(O)(C1CC1)C1CC1
inactive: endpoint: mean survival time, dose: 100.0 mg/kg/injection, schedule: Q04DX002 (ip), vehicle: saline 102 % of control | endpoint: mean survival time, dose: 200.0 mg/kg/injection, schedule: Q04DX002 (ip), vehicle: saline 98 % of control | endpoint: mean survival time, dose: 400.0 mg/kg/injection, schedule: Q04DX002 (ip), vehicle: saline 94 % of control

C=C1[C@@H](O)[C@]2(O)OC[C@@]34[C@H]1[C@@H](OC(=O)C(C)CC)C(=O)O[C@@H]3C[C@H]1C(C)=CC(=O)[C@@H](O)[C@]1(C)[C@@H]24 (some centres not stated)
inactive: endpoint: mean survival time, dose: 0.25 mg/kg/injection, schedule: Q01DX009 (ip), vehicle: saline with Tween-80 102 % of control | endpoint: mean survival time, dose: 0.5 mg/kg/injection, schedule: Q01DX009 (ip), vehicle: saline with Tween-80 105 % of control | endpoint: mean survival time, dose: 1.0 mg/kg/injection, schedule: Q01DX009 (ip), vehicle: saline with Tween-80 105 % of control | endpoint: mean survival time, dose: 2.0 mg/kg/injection, schedule: Q01DX009 (ip), vehicle: saline with Tween-80 108 % of control

CNC(=O)ON(C(C)=O)C(=O)NC
inactive: endpoint: mean survival time, dose: 12.5 mg/kg/injection, schedule: Q01DX009 (ip), vehicle: saline 100 % of control and 107 % of control | endpoint: mean survival time, dose: 25.0 mg/kg/injection, schedule: Q01DX009 (ip), vehicle: saline 107 % of control and 109 % of control | endpoint: mean survival time, dose: 50.0 mg/kg/injection, schedule: Q01DX009 (ip), vehicle: saline 114 % of control and 109 % of control

CC(=O)Nc1ccc(CCc2nc(NC(C)=O)nc(Cl)c2-c2ccc(Cl)c(Cl)c2)cc1
inactive: endpoint: mean survival time, dose: 75.0 mg/kg/injection, schedule: Q01DX001 (ip), vehicle: saline with Tween-80 103 % of control | endpoint: mean survival time, dose: 150.0 mg/kg/injection, schedule: Q01DX001 (ip), vehicle: saline with Tween-80 101 % of control | endpoint: mean survival time, dose: 300.0 mg/kg/injection, schedule: Q01DX001 (ip), vehicle: saline with Tween-80 94 % of control

Cc1cc2nc(Cc3nc4cc(C)c(C)cc4[nH]3)[nH]c2cc1C
inactive: endpoint: mean survival time, dose: 50.0 mg/kg/injection, schedule: Q01DX009 (ip), vehicle: saline with Tween-80 93 % of control | [1] 87 % of control | [2] 88 % of control

C=CN(C)OC
inactive: [3] 100 % of control

CC(=O)OC1C(OC(C)=O)C(OC(C)=O)C2OC(C)(C)OC2C1OC(C)=O (configuration not stated)
inactive: endpoint: mean survival time, dose: 100.0 mg/kg/injection, schedule: Q01DX009 (ip), vehicle: Klucel (hydroxypropylcellulose) (HPC) 96 % of control | endpoint: mean survival time, dose: 200.0 mg/kg/injection, schedule: Q01DX009 (ip), vehicle: Klucel (hydroxypropylcellulose) (HPC) 93 % of control | endpoint: mean survival time, dose: 400.0 mg/kg/injection, schedule: Q01DX009 (ip), vehicle: Klucel (hydroxypropylcellulose) (HPC) 100 % of control

O=S(=O)(O)C(O)c1cccc2ccccc12 (configuration not stated)
inactive: [4] 91 % of control | [5] 91 % of control | [6] 94 % of control

COc1nc(=O)n(C2C=CC(=O)O2)cc1F (configuration not stated)
inactive: endpoint: median survival time, dose: 6.25 mg/kg/injection, schedule: Q01DX009 (ip), vehicle: saline 98 % of control | endpoint: median survival time, dose: 12.5 mg/kg/injection, schedule: Q01DX009 (ip), vehicle: saline 100 % of control | endpoint: median survival time, dose: 25.0 mg/kg/injection, schedule: Q01DX009 (ip), vehicle: saline 108 % of control | endpoint: median survival time, dose: 50.0 mg/kg/injection, schedule: Q01DX009 (ip), vehicle: saline 108 % of control | endpoint: median survival time, dose: 100.0 mg/kg/injection, schedule: Q01DX009 (ip), vehicle: saline 110 % of control

CCc1ncc(CO)n1Cc1ccccc1
inactive: [1] 100 % of control

CCCCCCCCC(=O)CC
inactive: endpoint: mean survival time, dose: 100.0 mg/kg/injection, schedule: Q04DX003 (ip), vehicle: saline 98 % of control | endpoint: mean survival time, dose: 200.0 mg/kg/injection, schedule: Q04DX003 (ip), vehicle: saline 98 % of control | endpoint: mean survival time, dose: 400.0 mg/kg/injection, schedule: Q04DX003 (ip), vehicle: saline 93 % of control

CCc1ccccc1NC(=O)c1cccc(Cl)c1
inactive: [1] 98 % of control | [4] 94 % of control | [2] 91 % of control | [5] 96 % of control | [7] 96 % of control | [6] 96 % of control

COC(=O)c1cn(C2OC(CO)C(O)C2O)c2ncnc(N)c12 (configuration not stated)
inactive: endpoint: mean survival time, dose: 3.12 mg/kg/injection, schedule: Q01DX009 (ip), vehicle: water 104 % of control | endpoint: mean survival time, dose: 6.25 mg/kg/injection, schedule: Q01DX009 (ip), vehicle: water 112 % of control | endpoint: mean survival time, dose: 12.5 mg/kg/injection, schedule: Q01DX009 (ip), vehicle: water 122 % of control

CN1CCCC1CCNc1nc(-c2ccc(C(Cl)(Cl)Cl)cc2)nc(C(Cl)(Cl)Cl)n1 (configuration not stated)
inactive: [8] 95 % of control | [1] 95 % of control | [9] 95 % of control | [10] 94 % of control

O=S(=O)(Nc1ccc2c3c(cccc13)CC2)c1ccccc1
inactive: [4] 96 % of control | [5] 96 % of control | [6] 98 % of control

COC(=O)c1ccccc1NC1OC(CO)C(O)C1O (configuration not stated)
inactive: [3] 101 % of control | [11] 92 % of control | [12] 91 % of control

N/C(=N\OCc1ccccc1)c1ncn(C2CCCC2)c1N
inactive: endpoint: mean survival time, dose: 75.0 mg/kg/injection, schedule: Q01DX001 (ip), vehicle: other 102 % of control | endpoint: mean survival time, dose: 150.0 mg/kg/injection, schedule: Q01DX001 (ip), vehicle: other 106 % of control | endpoint: mean survival time, dose: 300.0 mg/kg/injection, schedule: Q01DX001 (ip), vehicle: other 103 % of control

CC(C)(C)c1cc(Cc2cc(C(C)(C)C)c(O)c(C(C)(C)C)c2)cc(C(C)(C)C)c1O
inactive: [8] 91 % of control | [9] 91 % of control | [10] 103 % of control

O=[N+]([O-])c1cccc(/C=C/C=C/c2cccc(S(=O)(=O)F)c2)c1
inactive: [1] 100 % of control | [4] 93 % of control | [2] 93 % of control | [5] 96 % of control | [7] 95 % of control | [6] 90 % of control

CC(=O)OCCOCCOCc1ccccc1
inactive: endpoint: mean survival time, dose: 100.0 mg/kg/injection, schedule: Q01DX001 (ip), vehicle: other 96 % of control | endpoint: mean survival time, dose: 200.0 mg/kg/injection, schedule: Q01DX001 (ip), vehicle: other 102 % of control | endpoint: mean survival time, dose: 400.0 mg/kg/injection, schedule: Q01DX001 (ip), vehicle: other 98 % of control

O=C(Nc1ccc(S(=O)(=O)F)cc1)c1ccc([N+](=O)[O-])cc1
inactive: [3] 105 % of control | [11] 100 % of control | [12] 100 % of control

Cc1ccc(O[Si](C)(C)C)cc1
inactive: [1] 100 % of control | [4] 103 % of control | [5] 87 % of control | [6] 89 % of control

N/N=C1\CC2C3CC4(OCCO4)C4C3CC2C14 (configuration not stated)
inactive: endpoint: mean survival time, dose: 75.0 mg/kg/injection, schedule: Q01DX001 (ip), vehicle: saline 102 % of control | endpoint: mean survival time, dose: 150.0 mg/kg/injection, schedule: Q01DX001 (ip), vehicle: saline 103 % of control

COC1OC(COS(C)(=O)=O)C(OS(C)(=O)=O)C(OS(C)(=O)=O)C1OS(C)(=O)=O (configuration not stated)
inactive: [1] 95 % of control | [2] 101 % of control | [7] 94 % of control

C1=CC2c3ccccc3C1C1C=CC21 (configuration not stated)
inactive: [1] 95 % of control | [4] 91 % of control | [2] 108 % of control | [5] 93 % of control | [7] 93 % of control | [6] 93 % of control

CCOC1NC(=O)Oc2ccccc21 (configuration not stated)
inactive: endpoint: median survival time, dose: 50.0 mg/kg/injection, schedule: Q01DX005 (ip), vehicle: Klucel (hydroxypropylcellulose) (HPC) 100 % of control | endpoint: median survival time, dose: 100.0 mg/kg/injection, schedule: Q01DX005 (ip), vehicle: Klucel (hydroxypropylcellulose) (HPC) 95 % of control | endpoint: median survival time, dose: 200.0 mg/kg/injection, schedule: Q01DX005 (ip), vehicle: Klucel (hydroxypropylcellulose) (HPC) 108 % of control
